Source: US6869923B1, “Perfume compositions” (Procter & Gamble Company, priority 1998, dated 2005)

Each compound was assayed on panelist (assay: Odor detection threshold (ODT) by gas chromatograph with sniff port). Conditions: GC sniff port, average across panelists.
Design: species or system human
Protocol: Odor detection thresholds are determined using a gas chromatograph. The gas chromatograph is calibrated to determine the exact volume of material injected by the syringe, the precise split ratio, and the hydrocarbon response using a hydrocarbon standard of known concentration and chain-length distribution. The air flow rate is accurately measured and, assuming the duration of a human inhalation to last […], the sampled volume is calculated. […] A panelist sniffs the GC effluent and identifies the retention time when odor is noticed. The average across all panelists determines the threshold of noticeability. […] Typical gas chromatograph parameters for determining odor detection thresholds are listed below. • GC: 5890 Series II with FID detector • 7673 Autosampler • Column: J&W Scientific DB-1 • Length 30 meters ID 0.25 mm film thickness 1 micron • Method: • Split Injection: 17/1 split ratio • Autosampler: 1.13 microliters per injection • Column Flow: 1.10 mL/minute • Air Flow: 345 mL/minute • Inlet Temp. 245° C. • Detector Temp. 285° C. • Temperature Information • Initial Temperature: 50° C. • Rate: 5 C/minute • Final Temperature: 280° C. • Final Time: 6 minutes • Leading assumptions: • (i) 12 seconds per sniff • (ii) GC air adds to sample dilution A-High Impact Accord (“HIA”) Perfume Ingredients of Class 1

Compound	ODT [PPB]
CC(C)=CC1CC(C)CCO1 (stereo not shown) [Rose Oxide]	<50
3-Methyl-4(5)-Cyclopentadecenone	<50
CC1=CC(C)C(C=O)CC1 (stereo not shown) [Cyclal C]	<50
CC1COC(C)(c2ccc3c(c2)C(C)(C)CCC3(C)C)O1 (stereo not shown) [2,4,Dimethyl-2-(1,1,4,4 tetramethyl) tetralin-6-yl)-13-dioxolane]	<50
CC(CO)C1CCCCCCCCCCC1 (stereo not shown) [2-(Cyclododecyl)-propan-1-ol]	<50
CCCCCCCCCCC=CC#N [Tridecene-2-nitrile]	<50
C=CC(C)(O)CCC=C(C)C (stereo not shown) [Linalool]	<50
O=C1CCCC=CCCCCCCCCCC1 [5-Cyclohexadecenone-1]	<50
CCOC(=O)C(C)CC (stereo not shown) [Ethyl-2-methyl Butyrate]	<50
CCCC(O)CCC1C(C)CCCC1(C)C (stereo not drawn) [Cyclohexane Propanol 2,2,6 Trimethyl-Alpha-Propyl.]	<50
CC/C=C\CCOC(=O)c1ccccc1O [Cis-3-Hexenyl Salicylate]	<50
CCC12CCC3C(C)(C)CCCC3(C)C1CCO2 (stereo not shown) [Naphtho(2.1-B)-furan,3A-Ethyl Dodecahydro-6,6,9A-Trimethyl]	<50
CC1C(C)(C)C2=C(C(=O)CCC2)C1(C)C (stereo not shown) [6,7Dihydro-1,1,2,3,3-Penta-Methyl-4(5H)-Indanone]	<50
CC1=CCC(C=CC(C)C(C)O)C1(C)C (stereo not shown) [3-Methyl-5-(2,2,3,trimethyl-3-cyclopenten-1-yl)-4-penten-2-ol]	<50
CCCCCCC#CC(=O)OC [Methyl Octine Carbonate]	<50
CC(=O)OC1CC2CC1C1CC=CC21 (stereo not shown) [Flor Acetate]	<50
CCC(=O)OC1CC2CC1C1CC=CC21 (stereo not shown) [Frutene]	<50
CC(=O)/C=C/C1=C(C)CCCC1(C)C [Ionone Beta]	<50
CC1=CCC(C(C)CC2CCCC2=O)CC1 (stereo not shown) [2-(2-(4 methyl-3-Cyclohexen-1-yl)propyl)-cyctopentanone.]	<50
COc1ccc(C=O)cc1 [Anisic Aldehyde]	<50
CC(=O)C1(C)CC2=C(CCCC2(C)C)CC1C (stereo not shown) [7,Acetyl,1,2,3,4,5,6,7,8-Octahydro-1,1,6,7-Tetra Methyl Naphthalene]	<50
Oxacyclohexadecen-2-one	<50
